Assays:
ScMreB5 [1] = target: T1, ScMreB5 (Spiroplasma citri, UniProt Q8VQG1); experiment: thermal shift (SYPRO Orange); type: binding; conditions: 2.6 µM protein, protein purified with ADP and MgCl2 added
T1 construct: gene mreB5; monomer about 38 kD, forms filaments
T1 sequence (Q8VQG1 1-352): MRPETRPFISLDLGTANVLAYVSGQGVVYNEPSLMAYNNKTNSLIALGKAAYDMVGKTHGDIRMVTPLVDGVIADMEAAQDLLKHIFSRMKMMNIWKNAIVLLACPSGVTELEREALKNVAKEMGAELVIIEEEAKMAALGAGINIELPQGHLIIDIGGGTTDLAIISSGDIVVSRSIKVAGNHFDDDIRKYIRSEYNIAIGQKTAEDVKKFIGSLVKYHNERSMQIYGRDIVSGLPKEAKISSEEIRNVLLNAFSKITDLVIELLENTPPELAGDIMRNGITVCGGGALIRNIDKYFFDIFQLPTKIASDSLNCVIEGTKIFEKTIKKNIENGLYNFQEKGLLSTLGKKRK

ScMreB5 [2] = target: T1, ScMreB5; experiment: X-ray crystal structure, […] Å; conditions: nucleotide-binding pocket; Mg2+ and K+ bound; 2 mM ADP, 2 mM MgCl2; ADP also co-purifies (HPLC)

Row | Structure (SMILES) | Tm (ScMreB5 [1]; 1 mM ATP) | X-ray crystal structure, 2.3 Å (ScMreB5 [2]) | Tm (ScMreB5 [1]; 1 mM ADP)
1 | Nc1ncnc2c1ncn2[C@@H]1O[C@H](COP(=O)(O)OP(=O)(O)OP(=O)(O)O)[C@@H](O)[C@H]1O [ATP] | increased stability in the KCl buffer and upon addition of excess ADP or ATP |  | 
2 | Nc1ncnc2c1ncn2[C@@H]1O[C@H](COP(=O)(O)OP(=O)(O)O)[C@@H](O)[C@H]1O [ADP] |  | ScMreB5 also crystallized in the presence of ADP (PDB accession no. 7BVZ) | Thermal shift assays showed increased stability in the KCl buffer and upon addition of excess ADP
